Source: publication PMC10931745 (International Journal of Molecular Sciences, 2024)

Key:
MCF-7 = assay: MTT cell viability assay; assay type: cell-based, human
Procedure: (§1) The cell lines used were purchased from American Type Culture Collection (ATCC, Manassas, VA, USA). Human breast cancer cells MCF-7 and MDA-MB-231, human mammary epithelial cell line MCF-10A, and mouse BALB/3T3 embryonic fibroblasts were cultured as already described by some of us. The murine macrophage cell line RAW 264.7 was maintained in Dulbecco’s Modified Eagle’s Medium (DMEM) high glucose (4.5 g/L) supplemented with 10% Fetal Bovine Serum (FBS), 1% L-glutamine, and 100 units/mL of penicillin/streptomycin. The cell cultures were maintained at the temperature of 37 °C in a humidified atmosphere containing 5% CO2.
(§2) The 3-(4,5-dimethylthiazol-2-yl)-2,5-diphenyl-2H-tetrazolium bromide (MTT) assay (Sigma Aldrich (St. Louis, MO, USA)) was carried out to study the in vitro anticancer activities of the complexes, following the previously reported protocol. The cells were incubated for 72 h with different concentrations of the tested compounds (0.1, 1, 10, 25, 50, 100, and 500 µM) and the IC50 values were calculated from the percent (%) of control using the software GraphPad Prism 9 (GraphPad Software, La Jolla, CA, USA).

MDA-MB-231 = assay: MTT cell viability assay; assay type: cell-based, human
Procedure: as §1, §2

[1] = test system: human mammary epithelial cell line MCF-10A; assay: MTT assay, toxicity towards normal cells; assay type: cell-based; conditions: 72 h
Procedure: as §1, §2

[2] = biological target: T1, human topoisomerase I (hTopoI) (Homo sapiens, UniProt P11387); assay: Human topoisomerase I relaxation assay; assay type: biochemical; conditions: supercoiled pHOT1 DNA
T1 construct: purchased TopoGEN, Port Orange, FL, USA
T1 sequence (P11387 1-765): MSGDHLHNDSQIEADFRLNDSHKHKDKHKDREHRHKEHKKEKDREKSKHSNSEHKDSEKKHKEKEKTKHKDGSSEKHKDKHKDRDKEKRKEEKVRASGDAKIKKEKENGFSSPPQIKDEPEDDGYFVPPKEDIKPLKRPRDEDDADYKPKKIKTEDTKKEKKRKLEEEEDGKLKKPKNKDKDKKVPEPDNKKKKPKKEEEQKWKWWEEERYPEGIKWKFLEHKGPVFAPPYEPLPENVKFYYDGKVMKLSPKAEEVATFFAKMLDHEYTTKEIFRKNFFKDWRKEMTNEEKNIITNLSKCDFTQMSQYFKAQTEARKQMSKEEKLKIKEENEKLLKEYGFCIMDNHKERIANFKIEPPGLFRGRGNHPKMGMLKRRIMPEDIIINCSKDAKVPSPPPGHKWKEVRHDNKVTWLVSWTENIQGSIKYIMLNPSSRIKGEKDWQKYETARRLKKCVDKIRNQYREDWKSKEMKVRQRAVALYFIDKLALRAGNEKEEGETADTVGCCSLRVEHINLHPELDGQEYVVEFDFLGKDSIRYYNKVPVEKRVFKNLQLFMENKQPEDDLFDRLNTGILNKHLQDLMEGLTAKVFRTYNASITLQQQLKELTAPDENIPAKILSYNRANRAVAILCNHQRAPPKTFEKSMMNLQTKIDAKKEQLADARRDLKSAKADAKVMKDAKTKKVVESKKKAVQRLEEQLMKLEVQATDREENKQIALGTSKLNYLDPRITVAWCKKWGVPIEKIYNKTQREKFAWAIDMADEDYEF
Procedure: The human topoisomerase I relaxation assay was performed as reported in [86]. Shortly, the recombinant human topo I (TopoGEN, Port Orange, FL, USA) was incubated with the super-coiled pHOT1, in the presence or not of the tested compounds, at the indicated concentrations. The reaction products were then allowed to separate through the agarose gel electrophoresis, and ethidium bromide-stained DNA was visualized under UV light.

[3] = ABTS radical scavenging assay; assay type: biochemical
Procedure: The radical scavenging properties of the complexes on a 2,20-azino-bis(3-ethylbenzothiazoline-6-sulfonate) radical cation (ABTS^+) were evaluated as previously described.
All the complexes were used at different concentrations (5, 10, 25, 50, and 100 µg/mL) and the ABTS radical scavenging activity, measured at 730 nm using a microplate reader, was expressed as inhibition percentages (%IABTS) compared tothe control, according to the following expression:(3) IABTS (%)=ABSCTRL−ABSsample/ABSCTRL∗100 where ABSCTRL and ABSsample are the absorbance at 730 nm in the control and in the presence of samples, respectively.
IC50 values were calculated from the %IABTS using GraphPad Prism 9 software (GraphPad Inc., San Diego, CA, USA). Trolox was employed as a positive control, while caffeine and theophylline were reference compounds.

[4] = test system: NO production in LPS-stimulated RAW 264.7 macrophages; assay: Griess assay, NO production; assay type: cell-based, murine; conditions: 25 µM, LPS 1 µg/mL, 24 h
Procedure: The Griess assay was performed using RAW 264.7 murine macrophages to study the anti-inflammatory activity in terms of NO production. RAW 264.7 cells were plated in the 48 multi-wells and, after 24 h, treated with the tested molecules (25 µM) and the lipopolysaccharide (LPS, Sigma Aldrich, Milan, Italy) at a final concentration of 1 µg/mL. LPS is able to induce inflammation by stimulating NO production in immune system cells such as macrophages. After 24 h, the cell medium Griess reagent (Sigma Aldrich, Milan, Italy) was mixed in with a ratio of 1:1. The Griess reagent allowed for the quantification of NO released by macrophages in the treatment medium. The mixture was left for 30 min under agitation and, subsequently, the absorbance at 540 nm was measured using a multiplate reader. The obtained absorbance allowed us to calculate the NO production % compared to the absorbance obtained for the positive control, in which the cells were treated with LPS.

[5] = test system: Klebsiella pneumoniae (ATCC 13883); assay: MIC/MBC broth dilution; assay type: cell-based; conditions: for MIC: Klebsiella pneumoniae, ATCC13883, read-out: M.I.C. K. pneumoniae
Procedure: (§3) The bacterial strains used for MIC and MBC value determinations expressed as µg/mL by the broth dilution method, according to CLSI guidelines, were the following:
(§4) -4 Gram-negative: Escherichia coli (ATCC® 25922^TM) and Klebsiella pneumoniae (ATCC® 13883^TM);
(§5) Increasing concentrations of the complexes (50, 70, 100, 150, and 200 µg/mL) were incubated with bacteria plated in 96-well microplates at 37 °C overnight as already reported, and then bacterial growth was checked at a wavelength of 600 nm using a Multiskan spectrophotometer (model Multiskan Ex Microplate; Thermo Scientific, Nyon, Switzerland). MIC or MBC values were obtained by comparing cell density with a positive control (bacterial cells grown in LB medium were added with only the vehicle, DMSO). The results were representative of three independent experiments performed in triplicate. Ampicillin, Gentamicin, and Cephalosporin (Sigma Aldrich A9393) were used as the control for strain sensitivity.

[6] = test system: Escherichia coli (ATCC 25922); assay: MIC/MBC broth dilution; assay type: cell-based; conditions: for MIC: Escherichia coli, ATCC25922
Procedure: as §3, §4, §5

[7] = DPPH radical scavenging assay; assay type: biochemical
Procedure: The radical scavenging properties of the complexes on the 1,1-diphenyl-2-picrylhydrazil (DPPH) radical were evaluated as previously described.
All the complexes were used at different concentrations (10, 25, 50, 100, and 200 µg/mL) and the DPPH radical scavenging activity, measured at 517 nm using a microplate reader, was expressed as inhibition percentages (%IDPPH) compared to the initial concentration of DPPH (control) according to the following expression:(2) IDPPH (%)=ABSCTRL−ABSsample/ABSCTRL∗100 where ABSCTRL and ABSsample are the absorbance at 517 nm in the control and in the presence of samples, respectively.
The obtained IDPPH percentages allowed us to calculate the IC50 values using Graph-Pad Prism 9 software (GraphPad Inc., San Diego, CA, USA). Trolox was employed as a positive control, while caffeine and theophylline were reference compounds.

[8] = test system: Salmonella typhimurium (ATCC 14028); assay: MIC/MBC broth dilution; assay type: cell-based
Procedure: as §3
as §5, with “The results were representative of three independent experiments performed in triplicate.” left out

[9] = test system: Pseudomonas aeruginosa (ATCC 15442); assay: MIC/MBC broth dilution; assay type: cell-based
Procedure: as §3
as §5, with “The results were representative of three independent experiments performed in triplicate.” left out

[10] = test system: Staphylococcus epidermidis (ATCC 14990); assay: MIC/MBC broth dilution; assay type: cell-based; conditions: for MIC: Staphylococcus epidermidis, ATCC14990, read-out: M.I.C. S. epidermidis
Procedure: as §3
(§6) -3 Gram-positive: Enterococcus faecalis (ATCC® 19433^TM), Staphylococcus aureus (ATCC® 23235^TM), and Staphylococcus epidermidis (ATCC® 14990™).
as §5

[11] = test system: Enterococcus faecalis (ATCC 19433); assay: MIC/MBC broth dilution; assay type: cell-based; conditions: for MIC: Enterococcus faecalis, ATCC19433, read-out: M.I.C. E. faecalis
Procedure: as §3, §6, §5

[12] = test system: Staphylococcus aureus (ATCC 23235); assay: MIC/MBC broth dilution; assay type: cell-based; conditions: for MIC: Staphylococcus aureus, ATCC23235, read-out: M.I.C. S. aureus
Procedure: as §3, §6, §5

| SMILES | IC50 (MCF-7; Homo sapiens, MCF7, 72 h) | IC50 (MDA-MB-231; Homo sapiens, MDA-MB-231, 72 h) | IC50 ([1]; Homo sapiens, MCF-10A) | IC50 [3] | M.I.C. K. pneumoniae [5] | M.I.C. E. coli [6] | IC50 [7] | M.I.C. S. epidermidis [10] | M.I.C. E. faecalis [11] | M.I.C. S. aureus [12] | also measured |
| --- | --- | --- | --- | --- | --- | --- | --- | --- | --- | --- | --- |
| Cn1c(=O)c2c(n(C)c1=O)[n+](C)cn2CC(O)c1ccccc1 (stereo not drawn) [P-L1, 9-[(2-Hydroxy-2-phenyl)ethyl]-1,3,7-trimethylxanthinium Iodide] | > 100 µM | > 100 µM | > 100 µM | – | – | – | – | – | – | – | – |
| N.N.[Cl][Pt][Cl] [Cisplatin, reference compound] | – | – | – | – | – | – | – | – | – | – | IC50 (MCF-7; 72 h): 26.2 ± 1.1 µM; IC50 (MDA-MB-231; 72 h): 32.2 ± 1 µM; IC50 [1]: 78.2 ± 1.2 µM; Inhibition of hTopo I supercoil relaxing activity ([2]; 50 µM): inhibited the hTopoI activity |
| Cn1c(=O)c2c(n(C)[c]([Au-][I])[n+]2C2CCCCC2O)n(C)c1=O (stereo not drawn) [AuL2, 1,3,7-Trimethylxanthin-9-[cyclohexan-2-ol-8-ylidene]Au(I) Iodide] | – | – | – | 155.5 ± 1 µM | 150 µg/mL | 150 µg/mL | > 500 µM | 100 µg/mL | 150 µg/mL | 150 µg/mL | Reduction in NO production [4]: ~12.64%; IC50 (MCF-7; 72 h): > 100 µM; IC50 (MDA-MB-231; 72 h): > 100 µM; M.B.C. K. pneumoniae [5]: > 200 µg/mL; M.B.C. E. coli [6]: > 200 µg/mL; IC50 [1]: > 100 µM; M.B.C. S. typhimurium [8]: > 200 µg/mL; M.I.C. S. typhimurium [8]: 150 µg/mL; M.B.C. P. aeruginosa [9]: > 125 µg/mL; M.I.C. P. aeruginosa [9]: 100 µg/mL; M.B.C. S. epidermidis [10]: > 125 µg/mL; M.B.C. E. faecalis [11]: > 200 µg/mL; M.B.C. S. aureus [12]: > 200 µg/mL |
| Cn1c(=O)c2c(n(C)c1=O)[n+](C)cn2C1CCCCC1O (stereo not drawn) [P-L2, 9-[Cyclohexan-2-ol]-1,3,7-trimethylxantinium Iodide] | > 100 µM | > 100 µM | > 100 µM | – | – | – | – | – | – | – | – |
| Cn1c(=O)c2c(n(C)c1=O)[n+](C)cn2CCO [P-L3] | > 100 µM | > 100 µM | > 100 µM | – | – | – | – | – | – | – | – |
| Cn1c(=O)c2[nH]cnc2n(C)c1=O [Theophylline, reference compound] | > 500 µM | > 500 µM | > 500 µM | > 500 µM | >200 µg/mL | >200 µg/mL | > 500 µM | >200 µg/mL | >200 µg/mL | >200 µg/mL | IC50 ABTS scavenging [3]: did not show any scavenging capacity; MIC [5]: > 200 mg/L; MIC [6]: > 200 mg/L; IC50 DPPH scavenging [7]: did not show any scavenging capacity; MIC [10]: > 200 mg/L; MIC [11]: > 200 mg/L; MIC [12]: > 200 mg/L |
| Cc1c(C)c2c(c(C)c1O)CCC(C)(C(=O)O)O2 (stereo not drawn) [Trolox, reference compound] | – | – | – | 54.5 ± 0.9 µM | – | – | 47 ± 1.2 µM | – | – | – | – |
| Cn1c(=O)c2c(ncn2C)n(C)c1=O [Caffeine, 1,3,7-trimethylxanthine, reference compound] | > 500 µM | > 500 µM | > 500 µM | > 500 µM | >200 µg/mL | >200 µg/mL | > 500 µM | >200 µg/mL | >200 µg/mL | >200 µg/mL | IC50 ABTS scavenging [3]: did not show any scavenging capacity; MIC [5]: > 200 mg/L; MIC [6]: > 200 mg/L; IC50 DPPH scavenging [7]: did not show any scavenging capacity; Inhibition of hTopo I supercoil relaxing activity ([2]; 1 µM): failed; M.I.C. P. aeruginosa [9]: >200 µg/mL; MIC ([9]; Pseudomonas aeruginosa, ATCC15442, read-out: M.I.C. P. aeruginosa): > 200 mg/L; MIC [10]: > 200 mg/L; MIC [11]: > 200 mg/L; MIC [12]: > 200 mg/L |
